Results taken from patent US20170065564A1, “BIS-CYCLIC GUANIDINE COMPOUND COMPOSITIONS, METHODS OF USE AND TREATMENT THEREOF” (University of South Florida, priority 2014, published 2017).

Tests used:
Assay in all cases: MIC micro broth dilution assay
Type in all cases: cell-based
[1] = system: Staphylococcus aureus; design: key to stacked score activity, 100/MIC, S: stacked score = 100/MIC; conditions: S. aureus
Method: (§1) For this study we used a representative panel of multi-drug resistant clinical ESKAPE pathogen isolates (Supplemental Table S6).^42 43 3a, 44 45 Gram-positive organisms were grown in tryptic soy broth media (TSB), whilst Gram-negative organisms were grown in lysogeny Broth (LB), as described by us previously. ^43 MIC and MBC determination assays.
(§2) Broth cultures of ESKAPE strains were grown overnight before being diluted 1 in 1,000 in fresh media. Sterile 96-well plates were loaded with culture and compounds (in DMF) were added at decreasing concentrations to equal a total volume of 200 μl per well. Care was taken to not add more than 2.0% DMF to any well. Plates were then incubated at 37° C., and MICs determined after 24 hours by visual inspection for a lack of turbidity in wells. All assays were performed in triplicate with identical results obtained. For both the scaffold ranking and positional scanning samples, relative broad-spectrum activity was determined via stacked scores: […]

[2] = system: Klebsiella pneumoniae; design: key to stacked score activity, 100/MIC, K: stacked score = 100/MIC; conditions: K. pneumoniae
Method: as §1, §2

[3] = system: Acinetobacter baumannii; design: key to stacked score activity, 100/MIC, A: stacked score = 100/MIC; conditions: A. baumannii
Method: as §1, §2

[4] = system: Enterobacter cloacae; design: key to stacked score activity, 100/MIC, E: stacked score = 100/MIC; conditions: E. cloacae
Method: as §1, §2

[5] = system: Enterococcus faecium; design: key to stacked score activity, 100/MIC, E: stacked score = 100/MIC; conditions: E. faecium
Method: as §1, §2

| Structure (SMILES) | stacked score activity, 100/MIC, S [1] | stacked score activity, 100/MIC, K [2] | stacked score activity, 100/MIC, A [3] | stacked score activity, 100/MIC, E [4] | stacked score activity, 100/MIC, E [5] |
| --- | --- | --- | --- | --- | --- |
| N=C1NC[C@H](CCCCN2C[C@@H](Cc3cccc4ccccc34)N(CCc3ccc(-c4ccccc4)cc3)C2=N)N1CCC12CC3CC(CC(C3)C1)C2 [Compound 24] | 10 | 0 | 0 | 0 | 4 |
| CCCCCCCN1C(=N)NC[C@@H]1CCCCN1CCNC1=N [Compound 28] | 0 | 0 | 0 | 0 | 0 |
| CCCCCCCN1C(=N)NC[C@@H]1CCCCN1CCN(CCc2cccc(C)c2)C1=N [Compound 29] | 4 | 0 | 0 | 0 | 0 |
| CCCCCCCN1C(=N)NC[C@@H]1CCCCN1CCN(CC(C)CC)C1=N (some centres unmarked) [Compound 30] | 0 | 0 | 0 | 0 | 0 |
| CCCCCCCN1C(=N)NC[C@@H]1CCCCN1C[C@H](C(C)CC)NC1=N (some centres unmarked) [Compound 31] | 4 | 0 | 0 | 0 | 0 |
| CCCCCCCN1C(=N)NC[C@@H]1CCCCN1C[C@H](C(C)CC)N(CC(C)CC)C1=N (some centres unmarked) [Compound 33] | 4 | 0 | 0 | 0 | 0 |
| CCCCCCCN1C(=N)NC[C@@H]1CCCCN1C[C@@H](CCC)NC1=N [Compound 34] | 4 | 0 | 0 | 0 | 0 |
| CCCCCCCN1C(=N)NC[C@@H]1CCCCN1C[C@@H](CCC)N(CC(C)CC)C1=N (some centres unmarked) [Compound 36] | 4 | 0 | 0 | 0 | 0 |
| N=C1NCCN1CCCC[C@H]1CNC(=N)N1CC1CCCCC1 [Compound 37] | 0 | 0 | 0 | 0 | 0 |
| Cc1cccc(CCN2CCN(CCCC[C@H]3CNC(=N)N3CC3CCCCC3)C2=N)c1 [Compound 38] | 4 | 0 | 0 | 0 | 0 |
| CCC(C)CN1CCN(CCCC[C@H]2CNC(=N)N2CC2CCCCC2)C1=N (some centres unmarked) [Compound 39] | 0 | 0 | 0 | 0 | 0 |
| CCC(C)[C@H]1CN(CCCC[C@H]2CNC(=N)N2CC2CCCCC2)C(=N)N1 (some centres unmarked) [Compound 40] | 0 | 0 | 0 | 0 | 0 |
| CCC(C)[C@H]1CN(CCCC[C@H]2CNC(=N)N2CC2CCCCC2)C(=N)N1CCc1cccc(C)c1 (some centres unmarked) [Compound 41] | 4 | 0 | 0 | 0 | 0 |
| CCC(C)CN1C(=N)N(CCCC[C@H]2CNC(=N)N2CC2CCCCC2)C[C@@H]1C(C)CC (some centres unmarked) [Compound 42] | 4 | 0 | 0 | 0 | 0 |
| CCC[C@@H]1CN(CCCC[C@H]2CNC(=N)N2CC2CCCCC2)C(=N)N1 [Compound 43] | 0 | 0 | 0 | 0 | 0 |
| CCC[C@@H]1CN(CCCC[C@H]2CNC(=N)N2CC2CCCCC2)C(=N)N1CCc1cccc(C)c1 [Compound 44] | 4 | 0 | 0 | 0 | 0 |
| CCC[C@@H]1CN(CCCC[C@H]2CNC(=N)N2CC2CCCCC2)C(=N)N1CC(C)CC (some centres unmarked) [Compound 45] | 4 | 0 | 0 | 0 | 0 |
| CC1CCC(CN2C(=N)NC[C@@H]2CCCCN2CCNC2=N)CC1 (some centres unmarked) [Compound 46] | 0 | 0 | 0 | 0 | 0 |
| Cc1cccc(CCN2CCN(CCCC[C@H]3CNC(=N)N3CC3CCC(C)CC3)C2=N)c1 (some centres unmarked) [Compound 47] | 4 | 0 | 0 | 0 | 0 |
| CCC(C)CN1CCN(CCCC[C@H]2CNC(=N)N2CC2CCC(C)CC2)C1=N (some centres unmarked) [Compound 48] | 0 | 0 | 0 | 0 | 0 |
| CCC(C)[C@H]1CN(CCCC[C@H]2CNC(=N)N2CC2CCC(C)CC2)C(=N)N1 (some centres unmarked) [Compound 49] | 4 | 0 | 0 | 0 | 0 |
| CCC(C)CN1C(=N)N(CCCC[C@H]2CNC(=N)N2CC2CCC(C)CC2)C[C@@H]1C(C)CC (some centres unmarked) [Compound 51] | 4 | 0 | 0 | 0 | 0 |
| CCC[C@@H]1CN(CCCC[C@H]2CNC(=N)N2CC2CCC(C)CC2)C(=N)N1 (some centres unmarked) [Compound 52] | 4 | 0 | 0 | 0 | 0 |
| CCC[C@@H]1CN(CCCC[C@H]2CNC(=N)N2CC2CCC(C)CC2)C(=N)N1CCc1cccc(C)c1 (some centres unmarked) [Compound 53] | 4 | 0 | 0 | 0 | 0 |
| CCC[C@@H]1CN(CCCC[C@H]2CNC(=N)N2CC2CCC(C)CC2)C(=N)N1CC(C)CC (some centres unmarked) [Compound 54] | 4 | 0 | 0 | 0 | 0 |
